Here are results for six molecules from patent publication US20180221306A1, “PHARMACEUTICAL COMPOSITIONS OF 5-HYDROXY-2-METHYLNAPHTHALENE-1,4-DIONE” (PellFiCure Pharmaceuticals, Inc., priority 2016, published 2018).

SMILES strings stand for the structures.

For the experiment, the system named is PTEN-P2/H2B-GFP mouse prostate cancer cells. The experiment in a line: IVM pseudo-orthotopic prostate chamber model, tumor size. The settings on record: for Combination efficacy: the drug in combination with Compound I administered orally. The method, then: Male Nude mice (25-35 g body weight) are anesthetized (7.3 mg ketamine hydrochloride and 2.3 mg xylazine/100 g body weight, i.p.) and placed on a heating pad. Two symmetrical titanium frames are implanted into a dorsal skinfold, so as to sandwich the extended double layer of skin. A 15 mm full thickness circular layer is excised. The underlying muscle (M. cutaneous max.) and subcutaneous tissues are covered with a glass coverslip incorporated in one of the frames. After a recovery period of 2-3 days, prostate tissue and cancer cell spheroids are carefully placed in the chamber. Small circular Band Aids are applied on the backside of the chamber after surgery to prevent scratching. Before surgery, Buprenorphine (0.1 mg/kg) is given IP. After surgery Meloxicam is given in the drinking water for 4 days Meloxicam (5.0 mg/ml), is added at 35 μl per 100 ml of water to be medicated.
Mice are anesthetized with 7.3 mg ketamine hydrochloride and 2.3 mg xylazine/100 g body weight, i.p. A lateral incision across the scrotum is made and the testes are individually ligated and excised. The wound is cauterized. The incision is then sutured and sealed with Nexaband® acrylic.
Preparation of tumor spheroids: Liquid overlay plates were generated using 1% molecular biology grade agarose melted in cell culture medium and plated in round bottom 96 well plates at 50 ul/well. Tumor cells grown as pre-confluent monolayers were trypsinized and diluted to a final volume of 1,000,000 cells/ml. Viability was determined by Trypan blue. Cells were placed onto the cooled agarose (70 μl/well) and allowed to compact into spheroids for 24 hours. The spheroids were picked with a pipette and transferred into serum-free media for implantation in the chambers.
IntraVital Microscopy (IVM) can be used to visualize tumors in animals and analyze various aspects of cancer physiology such as tumor vascularization, cell migration and metastasis. An advantage of IVM includes the real-time analysis of dynamic processes with single-cell resolution. IntraVital microscopy offers the possibility to follow tumor growth in a non-invasive, non-destructive manner. The application of IVM can be limited to animal models that bear visually accessible tumors. Therefore, the dorsal skinfold chamber model described above can be compatible with IVM. Using IVM can permit a number of parameters to be measured in living animals and as a function of time, including tumor growth, angiogenesis, infiltration by immune cells, tumor cell migration, mitosis (cell-division) and apoptosis (programmed cell death), all in the context of the host and in real time.
Unless otherwise indicated, Compound I was administered by oral gavage in a sesame oil (Carrier A) formulation. Compound I was dissolved in DMSO then in oil at a concentration of 0.25 mg/ml (weight/volume) with a final DMSO concentration of 0.5% (vol/vol), and administered to mice at 1 mg/kg. In some experiments, Compound I dissolved in a mixture of poly-ethylene glycol/DMSO 30% (w/v) was administered via intra-peritoneal injection.
The efficacy of the formulation of Compound I in Carrier A for oral administration was compared to the previous formulation of Compound I in poly-ethylene glycol (PEG) for intra-peritoneal injection (i.p.). These experiments were performed using Intra Vital Microscopy (IVM) in a pseudo-orthotopic prostate chamber model in which minced prostate tissue is grafted in chambers surgically placed in the dorsal skinfold of mice, and allowed to vascularize. Small tumor cells spheroids were then placed on the prostate tissue, creating a biologically relevant prostatic environment. The tumor cells that express fluorescent H2B-GFP and can be detected in situ and in real-time through the microscopy window of the dorsal chamber.
Epithelial cell lines derived from the prostate tumor of a PTEN-null mouse were used. Mouse prostate cancer cells PTEN-P2 are heterozygous for PTEN deletion and do express protein PTEN.

Regarding `C[C@]12CC[C@H](O)CC1=CC[C@@H]1[C@@H]2CC[C@]2(C)C(c3cccnc3)=CC[C@@H]12` [Abiratcrone, (3β)-17-(pyridin-3-yl)androsta-5,16-dien-3-ol, reference compound], the Combination efficacy result was “Yes”.
Take `CC(O)(CS(=O)(=O)c1ccc(F)cc1)C(=O)Nc1ccc(C#N)c(C(F)(F)F)c1` (stereo not drawn) [bicalutamide, N-[4-cyano-3-(trifluoromethyl)phenyl]-3-[(4-fluorophenyl)sulfonyl]-2-hydroxy-2-methylpropanamide, reference compound]: the Combination efficacy entry is given as “No”. In addition, where the note is “bicalutamide alone, inhibited further tumor growth”, the “Effect on tumor size, drug alone” value is on record as “did not result in a reduction of initial tumor size”.
As for `C[C@]12C=CC(=O)N[C@@H]1CC[C@@H]1[C@@H]2CC[C@]2(C)[C@@H](C(=O)Nc3cc(C(F)(F)F)ccc3C(F)(F)F)CC[C@@H]12` [dutasteride, (5α,17β)-N-{2,5-bis(trifluoromethyl)phenyl}-3-oxo-4-azaandrost-1-ene-17-carboxamide, reference compound], the Combination efficacy entry is “Yes”. For the same molecule, the “Tumor size relative to initial size” value (dutasteride alone) worked out at 120%.
On to `CNC(=O)c1ccc(N2C(=S)N(c3ccc(C#N)c(C(F)(F)F)c3)C(=O)C2(C)C)cc1F` [enzalutamide, (4-(3-(4-cyano-3-(trifluoromethyl)phenyl)-5,5-dimethyl-4-oxo-2-thioxoimidazolidin-1-yl)-2-fluoro-N-methylbenzamide), reference compound], for which the Combination efficacy entry is listed as “No”. Also, under “enzalutamide alone”, the “Effect on tumor size, drug alone” value is “did not result in a reduction in tumor size”.
On to `CCNC(=O)[C@@H]1CCCN1C(=O)[C@H](CCCNC(=N)N)NC(=O)[C@H](CC(C)C)NC(=O)[C@@H](CC(C)C)NC(=O)[C@H](Cc1ccc(O)cc1)NC(=O)[C@H](CO)NC(=O)[C@H](Cc1c[nH]c2ccccc12)NC(=O)[C@H](Cc1c[nH]cn1)NC(=O)[C@@H]1CCC(=O)N1` [leuprolide, 5-oxo-L-prolyl-L-histidyl-L-tryptophyl-L-seryl-L-tyrosyl-D-leucyl-L-leucyl-L-arginyl-N-ethyl-Lprolinamide acetate, reference compound], for which the Combination efficacy result is recorded as “Yes”. Also, under “leuprolide alone”, the “Effect on tumor growth, drug alone” value was “arrested tumor growth after 15 days of treatment but did not decrease tumor sizes”. The “Tumor size reached, relative to initial size” value (leuprolide alone (Lupron depot, 0.187 mg/mouse i.m. once)) is recorded as 180%.
For the molecule `CNC(=O)c1ccc2cc(C3(O)CCn4cncc43)ccc2c1` (stereo not drawn) [orteronel, 6-(7-Hydroxy-6,7-dihydro-5H-pyrrolo[1,2-c]imidazol-7-yl)-N-methyl-naphthalene-2-carboxamide, reference compound], the Combination efficacy result is “Yes”. For the same molecule, the “Effect on tumor size, drug alone” value (orteronel alone) was “did not result in a reduction in tumor size”.
